Here are results for 22 compounds from patent publication US4210749A, “Substituted 1,2,4,5-tetrahydro-3H,3 benzazepines” (priority 1979, dated 1980).

As a reminder, the LD50 is the dose at which mortality reaches 50%. The term ED50 denotes the midpoint of the dose-response relation. By NOAEL is commonly meant the highest tested level that showed no adverse finding.

The nature of series [1]: Mouse tail stimulation (MST), Table IV. In kind it is in vivo. More on the design: unit not given here. To be noted: S.C.
In series [2] the test system is sciatic block. Description: Local anesthetic sciatic block, Table IV. The following applies: 1%. In kind it is in vivo.
Series [3] can be described thus: Narcotic antagonism I.P., Table IV. In kind it is in vivo.
The nature of series [4]: I.P. symptomatology (highest tolerated dose, median lethal dose), Table IV. Type of series: in vivo. The following applies: in vivo, ip; for MTD: read-out: HTD (highest tolerated dose).
Series [5] is described as follows: Analgesic activity, hot plate method. In kind it is in vivo. Background: Hot-plate and tail-flick tests time the reaction to a heat stimulus.
Series [6] can be described thus: Analgesic activity in hot plate and writhing tests, overall comparison. To be noted: for Analgesic efficacy by route of administration: oral vs parenteral. On the technique in general: Writhing tests count abdominal constrictions after an irritant is injected.
A short description of series [7]: in vivo.
Series [8] in a line: Analgesic activity, writhing method. Type of series: in vivo.
Series [9] is described as follows: in vivo. The source holds these as a separate data set.
The test system of series [10] is morphine analgesia. In kind it is in vivo, rat. The following applies: rat, in vivo, sc.
Series [11] concerns isolated segments of guinea pig ileum (acetylcholine). Put plainly: Anticholinergic activity: block of acetylcholine in isolated segments of guinea pig ileum.
Series [12] concerns isolated segments of guinea pig ileum (histamine). Description: Antihistaminic activity: block of histamine in isolated segments of guinea pig ileum.

Counter-ions that a name gives are not always drawn. Bounds are passed on as bounds.

For the compound `CC(C)=CCN1CCc2ccc(O)cc2CC1C` (stereo not drawn) [Example 34, 3-(3,3-Dimethylallyl)-8-hydroxy-2-methyl-1,2,4,5-tetrahydro-3H,3-benzazepine hydrochloride], the “MST (mouse tail stimulation)” value in [1] is above 40. For the same compound, the “Local Anesthetic Sciatic Block” value in series [2] is listed as “Positive”. In addition, in series [3], the “Narcotic Antagonism” value is listed as “Positive”. In addition, in series [4], the LD50 was 60 mg/kg and the MTD is 10 mg/kg.
For the compound `COc1ccc2c(c1)CCN(CCN1CCN(c3ccccc3)CC1)CC2` [Example 31, 7-Methoxy-3-[2-(4-phenyl-1-piperazinyl)ethyl]-1,2,4,5-tetrahydro-3H,3-benzazepine], the “MST (mouse tail stimulation)” value in series [1] was 20. Also, the 50% effective dose (ED50) in series [5] (ip) was around 8 mg/kg; in series [5] (po), around 80 mg/kg; in series [8] (po) it was above 100 mg/kg. Also, the “Local Anesthetic Sciatic Block” value in series [2] was “Positive”. In addition, in series [6], the Analgesic activity ranking result is recorded as “most active compounds”. Besides, the “Separation between effective dose and toxic or lethal doses” value in series [6] was “greatest separation between effective dose and toxic or lethal doses”. The “Narcotic Antagonism” value in [3] is on record as “Negative”. Further, the LD50 is around 80 mg/kg in series [7] (ip), around 300 mg/kg in series [7] (po) and 80 mg/kg in series [4]. In addition, the MTD in [4] came to 30 mg/kg. The NOAEL is 32 mg/kg in series [9] (ip) and 100 mg/kg in series [9] (po).
Turning to `CC(C)=CCN1CCC2(C)c3cc(O)ccc3CC1C2C` (stereo not drawn) [Pentazocine, reference compound], the ED50 in series [5] (ip) was 100 mg/kg; in series [5] (po) it was above 316 mg/kg; in series [8] (po) it was 70 mg/kg. Moreover, the LD50 in series [7] (ip) was above 600 mg/kg; in [7] (po) it was around 800 mg/kg. For the same compound, the NOAEL in [9] (ip) and in series [9] (po) was 316 mg/kg each time.
Turning to `CCCN1CCc2ccc(OC)cc2CC1` [Example 22, 7-Methoxy-3-n-propyl-1,2,4,5-tetrahydro-3H,3-benzazepine], the ED50 in [5] (ip) is 26 mg/kg; in series [5] (po), above 316 mg/kg; in series [8] (po), above 316 mg/kg; in series [8] (sc) it was above 32 mg/kg. Besides, the “Narcotic Antagonism” value in series [3] was “Positive”. In series [4], the LD50 amounted to 50 mg/kg. For the same compound, the MTD in [4] is 30 mg/kg.
In the case of `C=CCN1CCc2ccc(OC)cc2CC1C` (stereo not drawn) [Example 38, 3-Allyl-8-methoxy-2-methyl-1,2,4,5-tetrahydro-3H,3-benzazepine hydrochloride], the “MST (mouse tail stimulation)” value in series [1] was above 10. Also, in [3], the “Narcotic Antagonism” value is “Positive”. Moreover, in series [4], the median lethal dose (LD50) worked out at 200 mg/kg and the MTD was 10 mg/kg.
Take `CN1CC[C@]23c4c5ccc(O)c4O[C@H]2[C@@H](O)C=C[C@H]3[C@H]1C5` [Morphine, reference compound]: the entries for the “Hot Plate ED50” value in series [5] (IP) and in series [5] (PO) were 2.5 mg/kg and 14 mg/kg, respectively. The “Writhing ED50” value in series [8] (PO) was 3 mg/kg.
Consider `C=CCN1CC[C@]23c4c5ccc(O)c4O[C@H]2[C@@H](O)C=C[C@H]3[C@H]1C5` [Nalorphine, reference compound], for which the “Antagonism of Morphine Analgesia, times more active than compounds listed above” value in [10] is on record as 20-100 times.
Consider `COc1ccc2c(c1)CCN(C(C)Cc1ccccc1)CC2` (racemic) [Example 26, 7-Methoxy-3-(1-methyl-2-phenylethyl)-1,2,4,5-tetrahydro-3H,3-benzazepine], for which, in series [11], the “Conc. for 50% block of Acetylcholine” value was found to be 94 μg/20 ml. The “Conc. for 50% block of Histamine” value in series [12] is reported as 54 μg/20 ml.
As to `COc1ccc2c(c1)CC(C)N(CCc1ccccc1)CC2` (stereo not drawn) [Example 36, 8-Methoxy-2-methyl-3-phenethyl-1,2,4,5-tetrahydro-3H,3-benzazepine hydrochloride], in [1], the “MST (mouse tail stimulation)” value is 10. For the same compound, the “Local Anesthetic Sciatic Block” value in series [2] is on record as “Insoluble”. Besides, the “Narcotic Antagonism” value in series [3] is given as “Negative”. Moreover, in [4], the LD50 was 60 mg/kg and the MTD came to 10 mg/kg.
Turning to `CC(=O)Oc1ccc2c(c1)CCN(CC=C(C)C)CC2` [Example 5, 7-Acetoxy-3-(3,3-dimethylallyl)-1,2,4,5-tetrahydro-3H,3-benzazepine hydrochloride], in series [1], the “MST (mouse tail stimulation)” value is above 30. Moreover, in series [2], the “Local Anesthetic Sciatic Block” value was “Positive”. In addition, the “Narcotic Antagonism” value in series [3] is given as “Positive”. In [4], the LD50 is around 200 mg/kg and the MTD is around 10 mg/kg.
On to `CCN1CCc2ccc(OC)cc2CC1` [Example 20, 3-Ethyl-7-methoxy-1,2,4,5-tetrahydro-3H,3-benzazepine], for which the median effective dose (ED50) in series [5] (ip) is 15 mg/kg; in series [5] (po) it was above 125 mg/kg; in series [8] (po), above 125 mg/kg; in series [8] (sc), above 32 mg/kg. Further, the “Local Anesthetic Sciatic Block” value in series [2] is given as “Positive”. In addition, in series [3], the “Narcotic Antagonism” value is “Negative”. This compound also returned a 50% lethal dose (LD50) in series [4] of 60 mg/kg. The MTD in series [4] was found to be 1 mg/kg.
Regarding `C=CCN1CCc2ccc(O)cc2CC1` [Example 11, 3-Allyl-7-hydroxy-1,2,4,5-tetrahydro-3H,3-benzazepine], the ED50 in series [5] (ip) was 35 mg/kg; in series [5] (po), above 316 mg/kg; in series [8] (po), above 316 mg/kg. The “Local Anesthetic Sciatic Block” value in series [2] is “Positive”. Besides, in series [3], the “Narcotic Antagonism” value is given as “Positive”. In series [4], this compound came in with an LD50 of 50 mg/kg. For the same compound, the MTD in [4] turned out to be 20 mg/kg.
For `COc1ccc2c(c1)CCN(CC1CC1)CC2` [Example 7, 3-Cyclopropylmethyl-7-methoxy-1,2,4,5-tetrahydro-3H,3-benzazepine], the “Conc. for 50% block of Acetylcholine” value in series [11] is on record as 220 μg/20 ml. For the same compound, the “Conc. for 50% block of Histamine” value in series [12] was determined as 20 μg/20 ml. In series [2], the “Local Anesthetic Sciatic Block” value is “Positive”. Also, the “Narcotic Antagonism” value in [3] is “Negative”. In addition, in [4], the LD50 was determined as 100 mg/kg and the MTD stood at 40 mg/kg.
Regarding `CC1Cc2cc(O)ccc2CCN1CC1CC1` (stereo not drawn) [Example 41, 3-Cyclopropylmethyl-8-hydroxy-2-methyl-1,2,4,5-tetrahydro-3H,3-benzezepine hydrochloride], the “MST (mouse tail stimulation)” value in series [1] is above 30. In addition, in [2], the “Local Anesthetic Sciatic Block” value is recorded as “Positive”. For the same compound, the “Narcotic Antagonism” value in series [3] is reported as “Negative”. Further, in series [4], the LD50 was around 60 mg/kg and the MTD is around 3 mg/kg.
`CCCN1CCc2ccc(O)cc2CC1` [Example 23, 7-Hydroxy-3-n-propyl-1,2,4,5-tetrahydro-3H,3-benzazepine]: in [11], the “Conc. for 50% block of Acetylcholine” value is recorded as above 1000 μg/20 ml. Besides, the “Conc. for 50% block of Histamine” value in [12] was 75 μg/20 ml. The “Local Anesthetic Sciatic Block” value in series [2] was “Positive”. In addition, in [3], the “Narcotic Antagonism” value is on record as “Positive”. Further, in [4], the LD50 came to 50 mg/kg and the MTD amounted to 20 mg/kg.
On to `COc1ccc2c3c1O[C@H]1[C@@H](O)C=C[C@H]4[C@@H](C2)N(C)CC[C@@]341` [Codeine, reference compound], for which the ED50 is 12 mg/kg in [5] (ip), 20 mg/kg in series [5] (po) and 17 mg/kg in series [8] (po).
Regarding `COc1ccc2c(c1)CCN(C)CC2` [Example 18, 7-Methoxy-3-methyl-1,2,4,5-tetrahydro-3H,3-benzazepine], the 50% effective dose (ED50) in [5] (ip) was 20 mg/kg; in [5] (po) it was 140 mg/kg; in series [8] (po), above 180 mg/kg; in series [8] (sc) it was above 32 mg/kg. In series [6], the “Analgesic efficacy by route of administration” value is reported as “active by the oral route”. Besides, the “Narcotic Antagonism” value in [3] is listed as “Negative”. The compound also registered a 50% lethal dose (LD50) in series [4] of 80 mg/kg. The MTD in series [4] is 25 mg/kg.
Turning to `Oc1ccc2c(c1)CCN(CCc1ccccc1)CC2` [Example 25, 7-Hydroxy-3-phenethyl-1,2,4,5-tetrahydro-3H,3-benzazepine], the 50% effective dose (ED50) in series [5] (ip) was 26 mg/kg; in series [5] (po), above 178 mg/kg; in [8] (po) it was above 178 mg/kg. In addition, the LD50 in [7] (po) was above 1000 mg/kg. In [9] (po), this compound had a no observed adverse effect level (NOAEL) of 178 mg/kg.
As for `COc1ccc2c(c1)CCNCC2` [Example 1, 7-Methoxy-1,2,4,5-tetrahydro-3H,3-benzazepine], the “MST (mouse tail stimulation)” value in series [1] was above 3. In addition, in series [2], the “Local Anesthetic Sciatic Block” value was “Positive”. Besides, the “Narcotic Antagonism” value in series [3] is “Negative”. Besides, in series [4], the LD50 amounted to 60 mg/kg and the MTD was 3 mg/kg.
As for `c1ccc2c(c1)CCN(CC1CC1)CC2` [Example 37, 3-Cyclopropylmethyl-1,2,4,5-tetrahydro-3H,3-benzazepine hydrochloride], the “Conc. for 50% block of Acetylcholine” value in series [11] is 540 μg/20 ml. Further, the “MST (mouse tail stimulation)” value in series [1] came out at 10. For the same compound, the 50% effective dose (ED50) in series [5] (ip) is 12 mg/kg; in series [5] (po) it was 37 mg/kg; in series [8] (po), 49 mg/kg; in [8] (sc), above 18 mg/kg. Besides, the “Conc. for 50% block of Histamine” value in [12] is reported as 20 μg/20 ml. Besides, the “Analgesic efficacy by route of administration” value in [6] is reported as “active by the oral route”. In [3], the “Narcotic Antagonism” value is on record as “Negative”. This compound also had a median lethal dose (LD50) in series [4] of 60 mg/kg. Moreover, the MTD in series [4] was found to be 10 mg/kg. Moreover, the “Writhing test activity relative to pentazocine” value in series [8] (oral route) is reported as “approximately twice as active as pentazocine”.
`Oc1ccc2c(c1)CCN(CC=Cc1ccccc1)CC2` [Example 29, 7-Hydroxy-3-(3-phenylallyl)-1,2,4,5-tetrahydro-3H,3-benzazepine]: the values for the ED50 in series [5] (ip), in series [5] (po) and in series [8] (po) were 230 mg/kg, above 1000 mg/kg and 210 mg/kg, respectively. Also, the median lethal dose (LD50) in series [7] (po) was above 1000 mg/kg. For the same compound, the NOAEL was found to be 300 mg/kg in series [9] (ip) and 1000 mg/kg in series [9] (po).
On to `CN1[C@@H]2CC[C@H]1C[C@@H](OC(=O)C(CO)c1ccccc1)C2` (stereo partly drawn) [Atropine, reference compound], for which the “Conc. for 50% block of Acetylcholine” value in series [11] was determined as 0.0035 μg/20 ml. In addition, the “Conc. for 50% block of Histamine” value in series [12] came out at 37 μg/20 ml.
